{"source": "ChEMBL document CHEMBL1201862", "about": "“PubChem BioAssay data set” (2004)", "key": {"[1]": {"test": "anti-trypanosomal activity in BESM host cells – imaging, CA-I/72 strain, bovine embryo skeletal muscle, dry powder, dose response (AID 651885)", "format": "functional, cell-based"}, "[2]": {"test": "Trypanosoma cruzi replication inhibitors in host cells – cell-based, plate reader, dry powder samples, dose response (AID 651845)", "format": "functional"}, "[3]": {"test": "T. cruzi growth inhibition in host cells, dose response, cell-based, plate reader, dry powder, set 2 (AID 652275)", "format": "functional"}, "[4]": {"biological_target": "Vasopressin V2 receptor (Homo sapiens, UniProt P30518)", "sequence (P30518 whole entry)": "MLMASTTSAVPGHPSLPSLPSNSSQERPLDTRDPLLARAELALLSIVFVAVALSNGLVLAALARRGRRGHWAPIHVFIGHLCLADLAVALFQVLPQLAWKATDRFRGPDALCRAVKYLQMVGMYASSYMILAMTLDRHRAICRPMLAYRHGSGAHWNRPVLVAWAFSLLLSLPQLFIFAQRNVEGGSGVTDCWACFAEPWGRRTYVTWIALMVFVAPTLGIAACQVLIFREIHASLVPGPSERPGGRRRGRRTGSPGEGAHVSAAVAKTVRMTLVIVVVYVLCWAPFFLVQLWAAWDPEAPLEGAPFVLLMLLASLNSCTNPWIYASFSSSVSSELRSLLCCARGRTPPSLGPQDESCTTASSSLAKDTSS", "test": "Late-stage results from the probe development effort to identify antagonists of arginine vasopressin receptor 1a (AVPR1a): fluorescence-based cell-based dose response AVPR2 inhibition counterscreen assay.", "format": "functional"}, "[5]": {"test": "Late-stage results from the probe development effort to identify antagonists of arginine vasopressin receptor 1a (AVPR1a): fluorescence-based cell-based dose response OXTR inhibition counterscreen assay.", "format": "functional"}, "[6]": {"test": "Late-stage results from the probe development effort to identify antagonists of arginine vasopressin receptor 1a (AVPR1a): fluorescence-based cell-based dose response AVPR1a inhibition assay.", "format": "functional"}, "[7]": {"biological_target": "Vasopressin V1b receptor (Homo sapiens, UniProt P47901)", "sequence (P47901 whole entry)": "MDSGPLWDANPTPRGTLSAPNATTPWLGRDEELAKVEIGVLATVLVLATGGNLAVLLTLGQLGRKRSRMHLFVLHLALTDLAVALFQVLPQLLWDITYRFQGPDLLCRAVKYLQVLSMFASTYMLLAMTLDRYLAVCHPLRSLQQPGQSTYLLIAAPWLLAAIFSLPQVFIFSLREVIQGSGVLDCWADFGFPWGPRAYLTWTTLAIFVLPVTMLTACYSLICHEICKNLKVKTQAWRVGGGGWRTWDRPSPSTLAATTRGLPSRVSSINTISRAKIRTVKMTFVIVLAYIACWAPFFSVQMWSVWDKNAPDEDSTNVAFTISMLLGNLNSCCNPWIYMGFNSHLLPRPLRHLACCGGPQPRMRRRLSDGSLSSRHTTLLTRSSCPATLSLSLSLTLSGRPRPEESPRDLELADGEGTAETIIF", "test": "Late-stage results from the probe development effort to identify antagonists of arginine vasopressin receptor 1a (AVPR1a): fluorescence-based cell-based dose response AVPR1b inhibition counterscreen assay.", "format": "functional"}, "[8]": {"biological_target": "NAD-dependent protein deacylase sirtuin-5, mitochondrial (Homo sapiens, UniProt Q9NXA8)", "sequence (Q9NXA8 whole entry)": "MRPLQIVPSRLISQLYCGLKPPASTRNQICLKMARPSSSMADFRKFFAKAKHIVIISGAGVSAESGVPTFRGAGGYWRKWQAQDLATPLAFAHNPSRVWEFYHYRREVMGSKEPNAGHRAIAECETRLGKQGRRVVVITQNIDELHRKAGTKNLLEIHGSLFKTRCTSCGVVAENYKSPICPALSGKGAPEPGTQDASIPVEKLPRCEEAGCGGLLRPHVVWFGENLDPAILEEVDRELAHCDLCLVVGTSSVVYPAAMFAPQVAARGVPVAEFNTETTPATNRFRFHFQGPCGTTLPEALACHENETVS", "test": "sirtuin-5 deacylation blockers, concentration series – biochemical, fluorescence imaging, cherry-pick, set 5, dose response (AID 720591);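 note: desuccinylation of succinyl peptide AMC substrate read as fluorescence after trypsin release; potency of inhibitors that lower fluorescence and may act on trypsin instead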"}, "[9]": {"test": "Late stage results for the probe development effort to identify inhibitors of Plasmodium falciparum gametocytes: Luminescence-based cell-based high throughput dose response assay to identify inhibitors of viability of late stage Plasmodium falciparum gametocytes.", "format": "functional"}, "[10]": {"test": "toxicity to HepG2 liver cells – cell-based, plate reader, dry powder, set 6, cytotoxicity control, dose response (AID 743311)", "format": "functional"}, "[11]": {"test": "cells", "format": "functional, cell-based", "conditions": "INS-1E"}, "[12]": {"test": "IC50 of insulin release inhibition, rat insulinoma INS-1E line, 5 mM glucose, cell-based (AID 1117331)", "format": "functional"}, "[13]": {"test": "glucagon-like peptide-1 release potency in STC-1, concentration-response, half-maximal inhibitory concentration in the STC-1 line (AID 1117345)", "format": "functional, cell-based"}, "[14]": {"test": "Potency on glucagon-like peptide 1 release, dose-response in NCI-H716 cell line, half maximal inhibitory concentration (AID 1117344)", "format": "functional, cell-based"}, "[15]": {"test": "cytotoxicity toward Colo320 cells – cell-based, CellTiter-Glo luminescence, IC50, dose response (AID 1117334)", "format": "functional", "conditions": "COLO 320"}, "[16]": {"test": "cytotoxicity toward HCT116 cells – cell-based, CellTiter-Glo luminescence, IC50, dose response (AID 1117332)", "format": "functional", "conditions": "HCT-116"}, "[17]": {"test": "CellTiter-Glo luminescence survival assay, SW480 colon tumor line, concentration-response curve, half-maximal inhibitory concentration (AID 1117338)", "format": "functional"}, "[18]": {"test": "Reduced DLD-1 viability, concentration-response, CellTiter-Glo luminescence (AID 1117352)", "format": "functional"}, "[19]": {"test": "RKO cell viability reduction, dose response, CellTiter-Glo luminescence (AID 1117322)", "format": "functional"}, "[20]": {"test": "SNU-C1 cell viability reduction, dose response, CellTiter-Glo luminescence (AID 1117323)", "format": "functional, cell-based"}, "[21]": {"test": "rise of 2N DNA cells, HeLa – IC50, dose response (AID 1117349)", "format": "functional, cell-based"}, "[22]": {"test": "HCT116 cell viability decrease, GSK3B pretreatment – CellTiter-Glo, IC50, dose response (AID 1117339)", "format": "functional", "conditions": "HCT-116"}, "[23]": {"test": "rise of 4N DNA cells, HeLa – IC50, dose response (AID 1117351)", "format": "functional, cell-based"}, "[24]": {"test": "cytotoxicity toward HT-29 cells – cell-based, CellTiter-Glo luminescence, IC50, dose response (AID 1117330)", "format": "functional"}}, "note": "Structures can show the parent of a compound that is named as a salt. Active and inactive are the calls of the source.", "data": [{"smiles": "CC(C)N(C)C(=O)c1cccc(NC(=O)c2ccncc2)c1OCCCN(C)Cc1ccc(Oc2ccccc2)cc1", "values": [{"measurement": "IC50", "setting": "[1]", "value": "10100 nM (inconclusive)"}, {"measurement": "AC50", "setting": "[2]", "value": "386 nM (active)"}, {"measurement": "AC50", "setting": "[3]", "value": "381 nM (active)"}]}, {"smiles": "Cc1ccc(N(CC2CC2)C(=O)N2CCN(c3ccccc3C)CC2)cc1", "values": [{"measurement": "IC50", "setting": "[4]", "value": "2220 nM (active)"}, {"measurement": "IC50", "setting": "[5]", "value": "82 nM (active)"}, {"measurement": "IC50", "setting": "[6]", "value": "6.9 nM (active)"}, {"measurement": "IC50", "setting": "[7]", "value": "17600 nM (inactive)"}]}, {"smiles": "COc1ccc(CN2C(=O)C(CC(=O)NCCc3ccccn3)CC(C(=O)N3CCOCC3)=C2C)cc1", "note": "(centres undefined)", "values": [{"measurement": "AC50", "setting": "[8]", "value": "> 30000 nM (inactive)"}]}, {"smiles": "Cc1cnc(NC(=O)c2cn(-c3ccccc3)nc2-c2cccnc2)s1", "values": [{"measurement": "IC50", "setting": "[9]", "value": "> 74400 nM (inactive)"}]}, {"smiles": "O=S(=O)(c1ccc(OCCn2cnc3ccccc32)cc1)N1CCOCC1", "values": [{"measurement": "AC50", "setting": "[10]", "value": "> 52000 nM (inactive)"}]}, {"smiles": "NC[C@H]1CC[C@H](C(=O)Oc2ccc(CCC(=O)O)cc2)CC1", "note": "[CETRAXATE HYDROCHLORIDE]", "values": [{"measurement": "IC50", "setting": "[11]", "value": "> 33300 nM (inactive)"}, {"measurement": "IC50", "setting": "[12]", "value": "> 33300 nM (inactive)"}]}, {"smiles": "CCCCC(CC)CN1CN(CC(CC)CCCC)CC(C)(N)C1", "note": "(centres undefined) [HEXETIDINE]", "values": [{"measurement": "IC50", "setting": "[13]", "value": "26600 nM (inactive)"}, {"measurement": "IC50", "setting": "[14]", "value": "36400 nM (inactive)"}]}, {"smiles": "Cc1nc(N)nc(N)c1-c1ccc(Cl)c(Cl)c1", "note": "[METOPRINE]", "values": [{"measurement": "IC50", "setting": "[15]", "value": "2030 nM (active)"}, {"measurement": "IC50", "setting": "[16]", "value": "413 nM (active)"}, {"measurement": "IC50", "setting": "[17]", "value": "512 nM (active)"}, {"measurement": "IC50", "setting": "[18]", "value": "634 nM (active)"}, {"measurement": "IC50", "setting": "[19]", "value": "117 nM (active)"}, {"measurement": "IC50", "setting": "[20]", "value": "2160 nM (active)"}, {"measurement": "IC50", "setting": "[21]", "value": "> 10000 nM (inactive)"}, {"measurement": "IC50", "setting": "[22]", "value": "58.9 nM (active)"}, {"measurement": "IC50", "setting": "[23]", "value": "> 10000 nM (inactive)"}, {"measurement": "IC50", "setting": "[24]", "value": "932 nM (active)"}]}]}
